Legend:
Experiment in all cases: Test F preemergence/postemergence greenhouse plant response rating 0 to 100
Conditions in all cases: 0 to 100 scale
downy brome = format: in vivo, Bromus tectorum
Description: (§1) Compounds evaluated in this test were formulated in a non-phytoxic solvent and applied to the soil surface before plant seedlings emerged (preemergence application) and to plants that were in the one-to-four leaf stage (postemergence application). A sandy loam soil was used for the preemergence test while a mixture of sandy loam soil and greenhouse potting mix in a 60:40 ratio was used for the postemergence test. Test compounds were applied within approximately one day after planting seeds for the preemergence test. Plantings of these crops and weed species were adjusted to produce plants of appropriate size for the postemergence test. All plant species were grown using normal greenhouse practices. Crop and weed species include winter barley (Hordeum vulgare cv. ‘Igri’), blackgrass (Alopecurus myosuroides), chickweed (Stellaria media), downy brome (Bromus tectorum), field violet (Viola arvensis), galium (Galium aparine), green foxtail (Setaria viridis), kochia (Kochia scoparia), lambsquarters (Chenopodium album), speedwell (Veronica persica), rape (Brassica napus), ryegrass (Lolium multiflorum), sugar beet (Beta vulgaris cv. ‘USl’), sunflower (Helianthus annuus cv. ‘Russian Giant’), spring wheat (Triticum aestivum cv. ‘ERA’), winter wheat (Triticum aestivum cv. ‘Talent’), wild buckwheat (Polygonum convolvulus), wild mustard (Sinapis arvensis), wild oat (Avena fatua), and wild radish (Raphanus raphanistrum). Blackgrass, galium and wild oat were treated at two growth stages. […] Treated plants and untreated controls were maintained in a greenhouse for approximately 21 to 28 days, after which all treated plants were compared to untreated controls and visually evaluated. […] A dash response (-) means no test result.

chickweed = format: in vivo, Stellaria media
Description: as §1

wild buckwheat = format: in vivo, Polygonum convolvulus
Description: as §1

spring wheat = format: in vivo, Triticum aestivum cv. ‘ERA’
Description: as §1

galium = format: in vivo, Galium aparine
Description: as §1

wild mustard = format: in vivo, Sinapis arvensis
Description: as §1

blackgrass = format: in vivo, Alopecurus myosuroides
Description: as §1

[1] = POSTEMERGENCE, Rate 4 g/ha, stage (1) two to three leaves
[2] = POSTEMERGENCE, Rate 4 g/ha, stage (2) approximately four leaves or initial tillering
[3] = POSTEMERGENCE, Rate 8 g/ha, stage (1) two to three leaves
[4] = POSTEMERGENCE, Rate 8 g/ha, stage (2) approximately four leaves or initial tillering
[5] = POSTEMERGENCE, Rate 16 g/ha, stage (1) two to three leaves
[6] = POSTEMERGENCE, Rate 16 g/ha, stage (2) approximately four leaves or initial tillering
[7] = POSTEMERGENCE, Rate 32 g/ha, stage (1) two to three leaves
[8] = POSTEMERGENCE, Rate 32 g/ha, stage (2) approximately four leaves or initial tillering
[9] = POSTEMERGENCE, Rate 64 g/ha, stage (1) two to three leaves
[10] = POSTEMERGENCE, Rate 64 g/ha, stage (2) approximately four leaves or initial tillering
[11] = POSTEMERGENCE, Rate 125 g/ha, stage (1) two to three leaves
[12] = POSTEMERGENCE, Rate 125 g/ha, stage (2) approximately four leaves or initial tillering
[13] = POSTEMERGENCE, Rate 250 g/ha, stage (1) two to three leaves
[14] = POSTEMERGENCE, Rate 250 g/ha, stage (2) approximately four leaves or initial tillering

C#CCOc1cc(-c2nn3c(c2Br)CCCC3)c(F)cc1Cl [Compound 26]
Downy brome plant response rating (downy brome; POSTEMERGENCE, Rate 4 g/ha): 0 | Downy brome plant response rating (downy brome; POSTEMERGENCE, Rate 8 g/ha): 0 | Downy brome plant response rating (downy brome; POSTEMERGENCE, Rate 16 g/ha): 0 | Downy brome plant response rating (downy brome; POSTEMERGENCE, Rate 32 g/ha): 0 | Downy brome plant response rating (downy brome; POSTEMERGENCE, Rate 64 g/ha): 30 | Downy brome plant response rating (downy brome; POSTEMERGENCE, Rate 125 g/ha): 50 | Downy brome plant response rating (downy brome; POSTEMERGENCE, Rate 250 g/ha): 10 | Downy brome plant response rating (downy brome; PREEMERGENCE, Rate 4 g/ha): 0 | Downy brome plant response rating (downy brome; PREEMERGENCE, Rate 8 g/ha): 0 | Downy brome plant response rating (downy brome; PREEMERGENCE, Rate 16 g/ha): 0 | Downy brome plant response rating (downy brome; PREEMERGENCE, Rate 32 g/ha): 0 | Downy brome plant response rating (downy brome; PREEMERGENCE, Rate 64 g/ha): 0 | Downy brome plant response rating (downy brome; PREEMERGENCE, Rate 125 g/ha): 30 | Downy brome plant response rating (downy brome; PREEMERGENCE, Rate 250 g/ha): 40 | Chickweed plant response rating (chickweed; POSTEMERGENCE, Rate 4 g/ha): 30 | Chickweed plant response rating (chickweed; POSTEMERGENCE, Rate 8 g/ha): 40 | Chickweed plant response rating (chickweed; POSTEMERGENCE, Rate 16 g/ha): 100 | Chickweed plant response rating (chickweed; POSTEMERGENCE, Rate 32 g/ha): 90 | Chickweed plant response rating (chickweed; POSTEMERGENCE, Rate 64 g/ha): 100 | Chickweed plant response rating (chickweed; POSTEMERGENCE, Rate 125 g/ha): 100 | Chickweed plant response rating (chickweed; POSTEMERGENCE, Rate 250 g/ha): 100 | Chickweed plant response rating (chickweed; PREEMERGENCE, Rate 4 g/ha): 0 | Chickweed plant response rating (chickweed; PREEMERGENCE, Rate 8 g/ha): 0 | Chickweed plant response rating (chickweed; PREEMERGENCE, Rate 16 g/ha): 45 | Chickweed plant response rating (chickweed; PREEMERGENCE, Rate 32 g/ha): 50 | Chickweed plant response rating (chickweed; PREEMERGENCE, Rate 64 g/ha): 100 | Chickweed plant response rating (chickweed; PREEMERGENCE, Rate 125 g/ha): 100 | Chickweed plant response rating (chickweed; PREEMERGENCE, Rate 250 g/ha): 100 | Wild buckwheat plant response rating (wild buckwheat; POSTEMERGENCE, Rate 4 g/ha): 100 | Wild buckwheat plant response rating (wild buckwheat; POSTEMERGENCE, Rate 8 g/ha): 100 | Wild buckwheat plant response rating (wild buckwheat; POSTEMERGENCE, Rate 16 g/ha): 100 | Wild buckwheat plant response rating (wild buckwheat; POSTEMERGENCE, Rate 32 g/ha): 100 | Wild buckwheat plant response rating (wild buckwheat; POSTEMERGENCE, Rate 64 g/ha): 100 | Wild buckwheat plant response rating (wild buckwheat; POSTEMERGENCE, Rate 125 g/ha): 100 | Wild buckwheat plant response rating (wild buckwheat; POSTEMERGENCE, Rate 250 g/ha): 100 | Wild buckwheat plant response rating (wild buckwheat; PREEMERGENCE, Rate 4 g/ha): 0 | Wild buckwheat plant response rating (wild buckwheat; PREEMERGENCE, Rate 8 g/ha): 0 | Wild buckwheat plant response rating (wild buckwheat; PREEMERGENCE, Rate 16 g/ha): 30 | Wild buckwheat plant response rating (wild buckwheat; PREEMERGENCE, Rate 32 g/ha): 100 | Wild buckwheat plant response rating (wild buckwheat; PREEMERGENCE, Rate 64 g/ha): 100 | Wild buckwheat plant response rating (wild buckwheat; PREEMERGENCE, Rate 125 g/ha): 100 | Wild buckwheat plant response rating (wild buckwheat; PREEMERGENCE, Rate 250 g/ha): 100 | Wheat (Spring) plant response rating (spring wheat; POSTEMERGENCE, Rate 4 g/ha): 0 | Wheat (Spring) plant response rating (spring wheat; POSTEMERGENCE, Rate 8 g/ha): 0 | Wheat (Spring) plant response rating (spring wheat; POSTEMERGENCE, Rate 16 g/ha): 0 | Wheat (Spring) plant response rating (spring wheat; POSTEMERGENCE, Rate 32 g/ha): 15 | Wheat (Spring) plant response rating (spring wheat; POSTEMERGENCE, Rate 64 g/ha): 15 | Wheat (Spring) plant response rating (spring wheat; POSTEMERGENCE, Rate 125 g/ha): 15 | Wheat (Spring) plant response rating (spring wheat; POSTEMERGENCE, Rate 250 g/ha): 20 | Wheat (Spring) plant response rating (spring wheat; PREEMERGENCE, Rate 4 g/ha): 0 | Wheat (Spring) plant response rating (spring wheat; PREEMERGENCE, Rate 8 g/ha): 0 | Wheat (Spring) plant response rating (spring wheat; PREEMERGENCE, Rate 16 g/ha): 0 | Wheat (Spring) plant response rating (spring wheat; PREEMERGENCE, Rate 32 g/ha): 0 | Wheat (Spring) plant response rating (spring wheat; PREEMERGENCE, Rate 64 g/ha): 0 | Wheat (Spring) plant response rating (spring wheat; PREEMERGENCE, Rate 125 g/ha): 15 | Wheat (Spring) plant response rating (spring wheat; PREEMERGENCE, Rate 250 g/ha): 20 | Galium (1) plant response rating (galium; [1]): 0 | Galium (2) plant response rating (galium; [2]): 50 | Galium (1) plant response rating (galium; [3]): 0 | Galium (2) plant response rating (galium; [4]): 50 | Galium (1) plant response rating (galium; [5]): 30 | Galium (2) plant response rating (galium; [6]): 100 | Galium (1) plant response rating (galium; [7]): 50 | Galium (2) plant response rating (galium; [8]): 60 | Galium (1) plant response rating (galium; [9]): 100 | Galium (2) plant response rating (galium; [10]): 100 | Galium (1) plant response rating (galium; [11]): 100 | Galium (2) plant response rating (galium; [12]): 100 | Galium (1) plant response rating (galium; [13]): 100 | Galium (2) plant response rating (galium; [14]): 100 | Galium (1) plant response rating (galium; PREEMERGENCE, Rate 4 g/ha, Galium (1)): 0 | Galium (2) plant response rating (galium; PREEMERGENCE, Rate 4 g/ha, Galium (2)): 0 | Galium (1) plant response rating (galium; PREEMERGENCE, Rate 8 g/ha, Galium (1)): 0 | Galium (2) plant response rating (galium; PREEMERGENCE, Rate 8 g/ha, Galium (2)): 20 | Galium (1) plant response rating (galium; PREEMERGENCE, Rate 16 g/ha, Galium (1)): 0 | Galium (2) plant response rating (galium; PREEMERGENCE, Rate 16 g/ha, Galium (2)): 40 | Galium (1) plant response rating (galium; PREEMERGENCE, Rate 32 g/ha, Galium (1)): 100 | Galium (2) plant response rating (galium; PREEMERGENCE, Rate 32 g/ha, Galium (2)): 100 | Galium (1) plant response rating (galium; PREEMERGENCE, Rate 64 g/ha, Galium (1)): 100 | Galium (2) plant response rating (galium; PREEMERGENCE, Rate 64 g/ha, Galium (2)): 100 | Galium (1) plant response rating (galium; PREEMERGENCE, Rate 125 g/ha, Galium (1)): 100 | Galium (2) plant response rating (galium; PREEMERGENCE, Rate 125 g/ha, Galium (2)): 100 | Galium (1) plant response rating (galium; PREEMERGENCE, Rate 250 g/ha, Galium (1)): 100 | Galium (2) plant response rating (galium; PREEMERGENCE, Rate 250 g/ha, Galium (2)): 100 | Wild mustard plant response rating (wild mustard; POSTEMERGENCE, Rate 4 g/ha): 70 | Wild mustard plant response rating (wild mustard; POSTEMERGENCE, Rate 8 g/ha): 70 | Wild mustard plant response rating (wild mustard; POSTEMERGENCE, Rate 16 g/ha): 100 | Wild mustard plant response rating (wild mustard; POSTEMERGENCE, Rate 32 g/ha): 100 | Wild mustard plant response rating (wild mustard; POSTEMERGENCE, Rate 64 g/ha): 100 | Wild mustard plant response rating (wild mustard; POSTEMERGENCE, Rate 125 g/ha): 100 | Wild mustard plant response rating (wild mustard; POSTEMERGENCE, Rate 250 g/ha): 100 | Wild mustard plant response rating (wild mustard; PREEMERGENCE, Rate 4 g/ha): 0 | Wild mustard plant response rating (wild mustard; PREEMERGENCE, Rate 8 g/ha): 0 | Wild mustard plant response rating (wild mustard; PREEMERGENCE, Rate 16 g/ha): 40 | Wild mustard plant response rating (wild mustard; PREEMERGENCE, Rate 32 g/ha): 50 | Wild mustard plant response rating (wild mustard; PREEMERGENCE, Rate 64 g/ha): 80 | Wild mustard plant response rating (wild mustard; PREEMERGENCE, Rate 125 g/ha): 70 | Blackgrass (1) plant response rating (blackgrass; [1]): 0 | Blackgrass (2) plant response rating (blackgrass; [2]): 0 | Blackgrass (1) plant response rating (blackgrass; [3]): 0 | Blackgrass (2) plant response rating (blackgrass; [4]): 0 | Blackgrass (1) plant response rating (blackgrass; [5]): 0 | Blackgrass (2) plant response rating (blackgrass; [6]): 0 | Blackgrass (1) plant response rating (blackgrass; [7]): 0 | Blackgrass (2) plant response rating (blackgrass; [8]): 0 | Blackgrass (1) plant response rating (blackgrass; [9]): 0 | Blackgrass (2) plant response rating (blackgrass; [10]): 10 | Blackgrass (1) plant response rating (blackgrass; [11]): 10 | Blackgrass (2) plant response rating (blackgrass; [12]): 10 | Blackgrass (1) plant response rating (blackgrass; [13]): 30 | Blackgrass (2) plant response rating (blackgrass; [14]): 15 | Blackgrass (1) plant response rating (blackgrass; PREEMERGENCE, Rate 4 g/ha, Blackgrass (1)): 0 | Blackgrass (2) plant response rating (blackgrass; PREEMERGENCE, Rate 4 g/ha, Blackgrass (2)): 0 | Blackgrass (1) plant response rating (blackgrass; PREEMERGENCE, Rate 8 g/ha, Blackgrass (1)): 0 | Blackgrass (2) plant response rating (blackgrass; PREEMERGENCE, Rate 8 g/ha, Blackgrass (2)): 0 | Blackgrass (1) plant response rating (blackgrass; PREEMERGENCE, Rate 16 g/ha, Blackgrass (1)): 0

Reference: patent publication US6358885B1, “Substituted phenylheterocyclic herbicides” (Mississippi State University, priority 1992, dated 2002)
